In the assay the target is T1, CYP11A1 (Homo sapiens, UniProt P05108).
T1 construct: host or cells: NCI-H295R
T1 sequence (P05108 40-521): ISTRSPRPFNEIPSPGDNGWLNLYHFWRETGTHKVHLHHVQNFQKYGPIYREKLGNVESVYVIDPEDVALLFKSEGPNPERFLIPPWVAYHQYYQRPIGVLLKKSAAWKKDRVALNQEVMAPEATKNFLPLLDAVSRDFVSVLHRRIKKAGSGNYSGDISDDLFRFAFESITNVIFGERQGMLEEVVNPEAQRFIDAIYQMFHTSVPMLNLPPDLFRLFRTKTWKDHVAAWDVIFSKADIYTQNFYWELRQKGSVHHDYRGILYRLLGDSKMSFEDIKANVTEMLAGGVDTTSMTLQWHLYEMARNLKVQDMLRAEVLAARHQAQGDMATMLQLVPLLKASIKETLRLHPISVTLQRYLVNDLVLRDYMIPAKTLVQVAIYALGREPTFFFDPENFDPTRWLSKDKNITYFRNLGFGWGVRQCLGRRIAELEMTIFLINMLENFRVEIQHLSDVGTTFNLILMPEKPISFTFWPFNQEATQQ
As to the kind of experiment: NCI-H295R cellular pregnenolone biosynthesis inhibition assay (ELISA method). In kind it is cell-based. The note with it: NCI-H295R cells, 3 days incubation, pregnenolone in cell supernatant by ELISA; read-out: IC50. As to the method:
The experiment aims to test the inhibitory effect of the compounds of the present disclosure on cellular pregnenolone biosynthesis, and to assess the inhibitory effect of the compounds on CYP11A1 target based on their IC50 values.
NCI-H295R cells (MINGZHOUBIO, MZ-2138) cultured in NCI-H295R complete medium (MINGZHOUBIO, MCM-0399).
Using culture medium, NCI-H295R cells were seeded into a new 384-well cell culture plate (Greiner, 781091) at a density of 5,000 cells per well, with 45µL of cell suspension per well. The test compounds were prepared by adding 5µL of compound solution at 10× concentration to each well, to a maximum final concentration of 10µM, followed by 3× serial dilution for 10 points, with a final DMSO concentration of 0.1%, centrifuging at 1,000 rpm for 1 minute at room temperature, and then incubating in a 5% CO2 cell incubator at 37°C for 3 days.
Pregnenolone ELISA kit (Abnova, KA1912) was used for detecting the content of pregnenolone in the supernatant of cell culture. Before detection, the reagents were allowed to come back to room temperature for 1 hour. After taking out the 384-well plate, the cellular supernatant was pipetted and subjected to 5× dilution with the Assay Buffer provided in the kit. A working solution of competitive molecule and a washing solution in accordance with the instructions was prepared. 50µL of diluted cellular supernatant were pipetted into the 96-well plate provided in the ELISA kit, added with 100µL of working solution of competitive molecule per well and the plate was incubated at room temperature for 1.5 hours. After discarding the liquid, the plate was washed with 300µL of washing solution per well three times and dried. After adding 150 µL of substrate chromogenic solution per well, the plate was incubated at room temperature for 10-15 minutes. After adding 50 µL of termination solution per well, the plate was incubated at room temperature for 10-15 minutes and read for absorbance at 450nm with Envision HTS Multilabel Reader.
The wells added with 1µM ODM-208 were defined as 100% inhibition (positive control), the wells containing DMSO at a final concentration of 0.1% were defined as 0% inhibition (negative control), and inhibitory ratio = (absorbance of tested sample - average absorbance of negative control)/(average absorbance of positive control - average absorbance of negative control)*100%. The data were subjected to four-parameter fitting using GraphPad Prism to calculate the IC50 values of the compounds.

Molecules are shown by their SMILES.

On to `COc1cc(CN2Cc3ccccc3C2)c(F)cc1OCC1CCN(S(C)(=O)=O)CC1` [compound 22], for which the IC50 was less than 0.1 µM.

For the compound `CS(=O)(=O)N1CCC(COc2ccc(CN3Cc4ccccc4C3)cc2O)CC1` [compound 18], the IC50 was less than 0.1 µM.

On to `Cc1cc(CN2Cc3ccccc3C2)cc(F)c1OCC1CCN(S(C)(=O)=O)CC1` [compound 35], for which the half-inhibitory concentration (IC50) was 0.1 to 0.3 µM.

For `COc1cc(CN2Cc3cccnc3C2)ccc1CCC1CCN(S(C)(=O)=O)CC1` [compound 62], the IC50 lay within 0.1 to 0.3 µM.

For the compound `CS(=O)(=O)N1CCC(C=Cc2cc(F)c(CN3Cc4ccccc4C3)cc2C#N)CC1` [compound 61], the half-maximal inhibitory concentration (IC50) lay within 0.1 to 0.3 µM.

As to `COc1cc(CN2Cc3ccccc3C2)ccc1C#CC1=CCS(=O)(=O)CC1` [compound 97], the IC50 was more than 0.3 µM.

Regarding `CCc1cc(CN2Cc3ccccc3C2)ccc1OCC1CCN(S(C)(=O)=O)CC1` [compound 13], the IC50 was less than 0.1 µM.

With `COc1cc(CN2Cc3cccc(F)c3C2)c(F)cc1CCC1CCN(S(C)(=O)=O)CC1` [compound 66], the IC50 was less than 0.1 µM.

With `Cn1c(CN2Cc3ccccc3C2)c(F)cc(C(F)=CC2CCN(C(=O)OC(C)(C)C)CC2)c1=O` [compound 128], the IC50 was in the range of 0.1 to 0.3 µM.

On to `COc1cc(CN2Cc3ccccc3C2)ccc1CCC1CCN(S(=O)(=O)C(F)(F)F)CC1` [compound 77], for which the IC50 was 0.1 to 0.3 µM.

As for `CS(=O)(=O)N1CCC(COc2ccc(CN3Cc4ccccc4C3)cc2OC(F)(F)F)CC1` [compound 20], the IC50 fell in the range of 0.1 to 0.3 µM.

For `COc1cc(CN2Cc3ccccc3C2)ccc1C#CC1(O)CCN(S(C)(=O)=O)CC1` [compound 93], the IC50 is 0.1 to 0.3 µM.

Take `CNC(=O)c1cc(CN2Cc3ccccc3C2)ccc1OCC1CCN(S(C)(=O)=O)CC1` [compound 24]: the IC50 is more than 0.3 µM.

Turning to `CS(=O)(=O)N1CCC(CCc2ccc(CN3Cc4ccccc4C3)o2)CC1` [compound 83], the IC50 is more than 0.3 µM.

Consider `CS(=O)(=O)N1CCC(CCc2ccc(CN3Cc4ccccc4C3)cc2C#N)CC1` [compound 54], for which the half-inhibitory concentration (IC50) was less than 0.1 µM.

For the compound `COC(=O)N1CCC(CCc2ccc(CN3Cc4ccccc4C3)cc2OC)CC1` [compound 80], the half-inhibitory concentration (IC50) was less than 0.1 µM.

For `Cn1c(CN2Cc3ccccc3C2)c(F)cc(CCC2CCN(S(C)(=O)=O)CC2(C)C)c1=O` (stereo not shown) [compound 114], the IC50 was less than 0.1 µM.

Regarding `CS(=O)(=O)N1CCC(CCc2cnc(CN3Cc4ccccc4C3)s2)CC1` [compound 87], the IC50 was more than 0.3 µM.

As to `Cn1c(CN2Cc3ccccc3C2)c(F)cc(C=CC2CCN(S(C)(=O)=O)CC2)c1=O` [compound 104], the half-maximal inhibitory concentration (IC50) is less than 0.1 µM.

For the compound `CS(=O)(=O)N1CCC(CCc2ccc(CN3Cc4ccccc4C3)cc2Cl)CC1` [compound 84], the half-maximal inhibitory concentration (IC50) is less than 0.1 µM.

Consider `CC1CC(C#Cc2cc(F)c(CN3Cc4ccccc4C3)n(C)c2=O)CCN1C(=O)OC(C)(C)C` (stereo not shown) [compound 115], for which the half-inhibitory concentration (IC50) is less than 0.1 µM.

For `COc1cc(CN2Cc3ccccc3C2)c(F)cc1CCC1CCN(S(C)(=O)=O)CC1` [compound 41], the IC50 lay in the range of 0.1 to 0.3 µM.

As for `CS(=O)(=O)N1CCC(CCn2ccc(CN3Cc4ccccc4C3)cc2=O)CC1` [compound 5], the half-inhibitory concentration (IC50) was more than 0.3 µM.

With `C=C(C)c1cc(CN2Cc3ccccc3C2)c(F)cc1OCC1CCN(S(C)(=O)=O)CC1` [compound 28], the IC50 is less than 0.1 µM.

`Cc1cc(CN2Cc3ccccc3C2)ccc1OCC1CCN(S(C)(=O)=O)CC1` [compound 11]: the IC50 is less than 0.1 µM.

As for `Cn1c(CN2Cc3ccccc3C2)c(F)cc(CCC2CCCN(S(C)(=O)=O)C2)c1=O` (stereo not shown) [compound 91], the IC50 is more than 0.3 µM.

As for `Cn1c(CN2Cc3ccccc3C2)c(F)cc(CCN2CCN(S(C)(=O)=O)CC2)c1=O` [compound 118], the concentration for half-maximal inhibition (IC50) fell in the range of 0.1 to 0.3 µM.

Take `CS(=O)(=O)N1CCC(COc2ccc(CN3Cc4ccccc4C3)cn2)CC1` [compound 7]: the IC50 was more than 0.3 µM.

For the compound `COc1cc(CN2Cc3ccccc3C2)ccc1OCC1CCN(S(C)(=O)=O)CC1` [compound 19], the IC50 is 0.1 to 0.3 µM.

Consider `COc1cc(CN2Cc3ccccc3C2)ccc1CCC1CCS(=O)(=O)CC1` [compound 88], for which the IC50 was more than 0.3 µM.

For `COc1cc(CN2Cc3ccccc3C2)ccc1C=CC1CCN(C(=O)OC(C)(C)C)CC1` [compound 50], the IC50 is less than 0.1 µM.

As to `Cn1c(CN2Cc3ccccc3C2)c(F)cc(C(F)=CC2CCN(S(C)(=O)=O)CC2)c1=O` [compound 123], the IC50 is less than 0.1 µM.

Regarding `CS(=O)(=O)N1CCC(COc2ccc(CN3Cc4ccccc4C3)cc2)CC1` [compound 10], the concentration for half-maximal inhibition (IC50) is less than 0.1 µM.

Turning to `COc1nc(CN2Cc3ccccc3C2)ccc1CCC1CCN(S(C)(=O)=O)CC1` [compound 65], the half-maximal inhibitory concentration (IC50) was 0.1 to 0.3 µM.

For the compound `CS(=O)(=O)N1CCC(COc2ccc(CN3Cc4ccccc4C3)nc2)CC1` [compound 8], the IC50 was more than 0.3 µM.

Turning to `Cn1c(CN2Cc3ccccc3C2)c(F)cc(C(=O)CC2CCN(C(=O)OC(C)(C)C)CC2)c1=O` [compound 125], the half-inhibitory concentration (IC50) is less than 0.1 µM.

As to `C=C(C)c1cc(CN2Cc3ccccc3C2)ccc1OCC1CCN(S(C)(=O)=O)CC1` [compound 27], the IC50 was 0.1 to 0.3 µM.

As for `CS(=O)(=O)N1CCC(COc2cnc(CN3Cc4ccccc4C3)cn2)CC1` [compound 9], the half-maximal inhibitory concentration (IC50) is more than 0.3 µM.

Take `[2H]C(c1c(F)cc(CCC2CCN(S(C)(=O)=O)CC2)c(=O)n1C)N1Cc2ccccc2C1` (stereo not shown) [compound 108]: the concentration for half-maximal inhibition (IC50) is less than 0.1 µM.

In the case of `CS(=O)(=O)N1CCC(CCc2sc(CN3Cc4ccccc4C3)cc2Br)CC1` [compound 95], the half-maximal inhibitory concentration (IC50) is more than 0.3 µM.

`CS(=O)(=O)N1CCC(COc2cc(F)c(CN3Cc4ccccc4C3)cc2Br)CC1` [compound 25]: the IC50 is less than 0.1 µM.

In the case of `CS(=O)(=O)N1CCC(CCc2cc(F)c(CN3Cc4ccccc4C3)cc2C#N)CC1` [compound 59], the concentration for half-maximal inhibition (IC50) is less than 0.1 µM.

On to `CC(C)c1cc(CN2Cc3ccccc3C2)ccc1CCC1CCN(S(C)(=O)=O)CC1` [compound 74], for which the half-inhibitory concentration (IC50) is less than 0.1 µM.

With `Cn1cc(OCC2CCN(S(C)(=O)=O)CC2)c(=O)cc1CN1Cc2ccccc2C1` [compound 1], the IC50 is more than 0.3 µM.

For the compound `COc1nc(CN2Cc3ccccc3C2)c(F)cc1CCC1CCN(S(C)(=O)=O)CC1` [compound 89], the half-maximal inhibitory concentration (IC50) lay within 0.1 to 0.3 µM.

`Cn1c(CN2Cc3cccc(F)c3C2)c(F)cc(CCC2CCN(S(C)(=O)=O)CC2)c1=O` [compound 100]: the IC50 is more than 0.3 µM.

Consider `C=CCOc1cc(CN2Cc3ccccc3C2)ccc1OCC1CCN(S(C)(=O)=O)CC1` [compound 29], for which the concentration for half-maximal inhibition (IC50) is less than 0.1 µM.

Regarding `COc1cc(CN2Cc3ccccc3C2)ccc1Oc1cccc2c1CCN(S(C)(=O)=O)C2` [compound 45], the half-inhibitory concentration (IC50) is more than 0.3 µM.

Consider `COc1cc(CN2Cc3ccccc3C2)ccc1CCC1CCN(C(=O)C(F)(F)F)CC1` [compound 71], for which the IC50 was 0.1 to 0.3 µM.

For `CC(=O)N1CCN(c2cccc(Oc3ccc(CN4Cc5ccccc5C4)cc3F)c2)CC1` [compound 47], the 50% inhibitory concentration (IC50) is more than 0.3 µM.

For `COc1cc(CN2Cc3ccccc3C2)ccc1CCN1CCN(S(C)(=O)=O)CC1` [compound 48], the half-maximal inhibitory concentration (IC50) was in the range of 0.1 to 0.3 µM.

As for `Cn1c(CN2Cc3ccccc3C2)c(F)cc(C=CC2CCN(C(=O)OC(C)(C)C)CC2)c1=O` [compound 105], the IC50 was less than 0.1 µM.

For `Fc1cc(OCC2CCNCC2)c(Br)cc1CN1Cc2ccccc2C1` [compound 56], the concentration for half-maximal inhibition (IC50) was more than 0.3 µM.

As for `OCCN1CCC(COc2cc(F)c(CN3Cc4ccccc4C3)cc2Br)CC1` [compound 55], the 50% inhibitory concentration (IC50) is more than 0.3 µM.

With `CS(=O)(=O)N1CCC(COc2ccc(CN3Cc4ccccc4C3)cc2-c2nccs2)CC1` [compound 38], the IC50 is more than 0.3 µM.

Turning to `CS(=O)(=O)N1CCC(COc2ccc(CN3Cc4ccccc4C3)cc2F)CC1` [compound 15], the IC50 is less than 0.1 µM.

Regarding `COc1cc(OCC2CCN(S(C)(=O)=O)CC2)c(F)cc1CN1Cc2ccccc2C1` [compound 23], the 50% inhibitory concentration (IC50) is more than 0.3 µM.

In the case of `COc1cc(CN2Cc3ccccc3C2)ncc1OCC1CCN(S(C)(=O)=O)CC1` [compound 2], the IC50 was more than 0.3 µM.
